Experimental data published in ChEMBL document CHEMBL1151096, “7-aminoalkyl-2-amino-1,2,3,4-tetrahydro-2-naphthoic acids as inhibitors of tryptophan uptake” (Bioorg Med Chem Lett, 1992).

These compounds were tested on WiDr (assay: Compound was tested for inhibition of 14C-Tryptophan uptake in WiDr human adenocarcinoma cells and the effect was determined at 0-100 uM concentration).
Format: functional, cell-based

Row | Compound | Ki
1 | Nc1ccc2c(c1)CC(N)(C(=O)O)CC2 (stereo not drawn) | 34 µM
2 | CCCNc1ccc2c(c1)CC(N)(C(=O)O)CC2 (stereo not drawn) | 1.7 µM
3 | NC1(C(=O)O)CCc2ccc(N(CCO)CCO)cc2C1 (stereo not drawn) | 1.4 µM
4 | NC1(C(=O)O)CCc2ccccc2C1 (stereo not drawn) | 37 µM
5 | CN(C)c1ccc2c(c1)CC(N)(C(=O)O)CC2 (stereo not drawn) | 1.4 µM
6 | NC1(C(=O)O)CCc2ccc(N(CCCl)CCCl)cc2C1 (stereo not drawn) | 0.8 µM
7 | CC(C)Nc1ccc2c(c1)CC(N)(C(=O)O)CC2 (stereo not drawn) | 0.6 µM
8 | CCCN(CCC)c1ccc2c(c1)CC(N)(C(=O)O)CC2 (stereo not drawn) | 7.4 µM
